From publication PMC11873125 (Scientific Reports, 2025)
“Also recorded” adds a separate entry of the source.

Legend:
[1] = system: LMNA/C in TRE-FLAG-LMNB1 MEF; assay: Primary HCS assay, LMNA/C intensity; type: cell-based, mouse; settings: 48 h
[2] = system: LMNB1 in TRE-FLAG-LMNB1 MEF; assay: Primary HCS assay, LMNB1 intensity, dose-response; type: cell-based, mouse; settings: DOX medium, 48 h, ten-point dose-response
[3] = system: LMNB1 in TRE-FLAG-LMNB1 MEF; assay: Western blot of LMNB1 in TRE-FLAG-LMNB1 MEF; type: cell-based, mouse; settings: 48 h, LMNB1/actin
TRE-FLAG-LMNB1 MEF = assay: Primary HCS assay, cell numbers; type: cell-based, mouse; settings: 48 h
ADLD patient fibroblasts = assay: Antiproliferative activity and expanded toxicity measurements; type: cell-based, human; settings: high density, two-day exposure
LMNB in HL-60 cells = settings: cited from earlier work
LMNB1 = settings: cited from earlier work
[4] = Solubility observation during SAR testing; type: physicochemical

| SMILES | Effect on LMNB1 levels in dose-response (in words) [2] | Cellular toxicity (in words) (TRE-FLAG-LMNB1 MEF) | other results |
| --- | --- | --- | --- |
| Oc1c2ccccc2c2c3c(cccc13)N=N2 [SP600125] | dose-dependent decreases in LMNB1 levels; also recorded: maximum response with SP600125 was small and the curve not sigmoidal | no or low toxicity | Effect on LMNA/C expression, selectivity (in words) [1]: selectively reduced LMNB1 over LMNA/C; Confirmation of LMNB1 reduction by Western blot (in words) [3]: did not confirm |
| Oc1ccc(-c2nc(-c3ccncc3)c(-c3ccc(F)cc3)[nH]2)cc1 [SB202190] | dose-dependent decreases in LMNB1 levels | no or low toxicity | Effect on LMNA/C expression, selectivity (in words) [1]: selectively reduced LMNB1 over LMNA/C; Confirmation of LMNB1 reduction by Western blot (in words) [3]: concentration-dependently reduced both human-FLAG-LMNB1 and endogenous mouse LMNB1 |
| CCOc1ccccc1C1CC(c2ccccc2)Nc2nc(N)nn21 (stereo not shown) [CID 3512343] | retained some activity | – | – |
| CC[C@@]1(O)C(=O)OCc2c1cc1n(c2=O)Cc2cc3ccccc3nc2-1 [camptothecin, (S)-( +)-camptothecin] | dose-dependent decreases in LMNB1 levels | cellular toxicity | Effect on cell numbers, nuclear morphology and cell size (in words) (ADLD patient fibroblasts): reduced cell numbers and caused cells to enlarge; Effect on LMNB levels (in words) (LMNB in HL-60 cells): reduce LMNB levels in HL-60 cells |
| COc1ccccc1NC(=S)N[C@@H](NC(=O)c1cccc(Br)c1)C(Cl)(Cl)Cl [UPCMLDCBRC1049772] | abolished activity | – | – |
| CO[C@H]1/C=C\C=C(/C)C(=O)NC2=CC(=O)C(NCCN(C)C)=C(C[C@@H](C)C[C@H](OC)[C@H](O)[C@@H](C)/C=C(\C)[C@@H]1OC(N)=O)C2=O [alvespimycin] | – | significant cellular toxicity | Effect on LMNB1 (in words) (LMNB1): reduced LMNB1 |
| Cc1c(CNC(=O)c2nn3c(c2Cl)N[C@@H](c2ccccc2)C[C@@H]3C(F)(F)F)cnn1C [UPCMLDCBRC1040264] | abolished activity | – | – |
| COc1ccc(C2CC(c3ccc(Cl)cc3Cl)Nc3nc(N)nn32)cc1OC (stereo not shown) [CID 3154587] | inactive | – | – |
| COc1ccc(C2CC(c3ccccc3Cl)Nc3nc(N)nn32)cc1OC (stereo not shown) [CID 3154585] | limited response at the highest concentration tested | – | – |
| COc1cccc(C2CC(c3ccccc3Cl)Nc3ncnn32)c1 (stereo not shown) [CID 663139] | – | – | Solubility (in words) [4]: caused solubility problems |
| CCOc1ccc(N([C@@H](C)C(=O)Nc2ccc(Br)c(C)c2)S(C)(=O)=O)cc1 [UPCMLDCBRC1002139] | not tolerated | – | – |
| O=C(NCc1ccco1)c1cc2nc(-c3ccc4c(c3)OCO4)cc(C(F)(F)F)n2n1 [MolPort-001–493–770] | very strong reduction of LMNB1, which was an artifact of image analysis | – | – |
